Assay results from patent publication US20240382521A1, “METHODS OF ENGINEERING IMMUNE CELLS HAVING REDUCED FRATRICIDAL ACTIVITY” (Baylor College of Medicine, priority 2021, published 2024).

What was measured:
CD5 CAR T-cells = assay: Expansion of CD5 CAR T-cells in the presence of kinase inhibitors; type: cell-based, human; details: for frequencies of minimally differentiated, naïve-like T-cells (differentiation of CD5 CAR T-cells): inhibitor added on day of viral transduction, replenished every 2-3 days, vs control CD5 CAR T-cells expanded in the absence of inhibitors, FIG. 1A
Text: Pazopanib and gefitinib had less impact on the differentiation of CD5 CAR T-cells. […] No such effect was observed upon expansion of control non-transduced T-cells in the presence of the same inhibitors, indicating the effect is CAR-specific.

CYP3A = details: cited from earlier work

| Compound | frequencies of minimally differentiated, naïve-like T-cells (differentiation of CD5 CAR T-cells) (CD5 CAR T-cells) | metabolism in the liver by the CYP3A (CYP3A) | CD5 CAR T-cell expansion (CD5 CAR T-cells; in presence of inhibitor, compared with non-transduced control T-cells, FIG. 1B) |
| --- | --- | --- | --- |
| COc1cc2ncnc(Nc3ccc(F)c(Cl)c3)c2cc1OCCCN1CCOCC1 [gefitinib] | less impact | – | – |
| Cc1nc(Nc2ncc(C(=O)Nc3c(C)cccc3Cl)s2)cc(N2CCN(CCO)CC2)n1 [dasatinib] | – | extensive metabolism | – |
| CC(C)(C)n1nc(-c2ccc(Cl)cc2)c2c(N)ncnc21 [pp2] | higher frequencies | – | promoted robust CD5 CAR T-cell expansion |
